# Values joined by “and” are separate entries in the source; they are usually repeats but may differ in a detail not shown here. Equal entries are not always repeated. Where two headings read alike, the source gives them in different places.
# Columns and labels:
# P. aeruginosa = details: cited from earlier work
# MRSA 01 [1] = test: Effect of pH on the antibacterial activity (MIC) of niclosamide; type: cell-based, Staphylococcus aureus; details: for MIC: Staphylococcus aureus, MRSA
# Method: This strain was conserved in Luria Bertani (LB) Broth supplemented with glycerol 15% (v/v) at −80° C., and reactivated by isolation on LB agar plates. It was then cultivated aerobically in Mueller Hinton (MH) Broth-cation adjusted at 37° C.
# The pH of Mueller-Hinton Broth cation-adjusted was adjusted with HCl 2M to 7, 6.5, 6, 5.5, 5, 4.5 and […]. Ten ml of medium for each pH were prepared. pH of non-adjusted MHBII was equal to 7.4.
# Each pH-adjusted samples were filtered on 0.2 μm filters before being used for the MIC determination assay.
# Bacterial culture was stopped in its exponential growth phase and plates were inoculated with the approximate concentration of 5×10^5 cells per well. Plates were incubated at 37° C. for 18 hours (S. aureus).
# The experiment was performed in triple biological replicates.
# S. pyogenes strains = test: Minimum Inhibitory Concentration (MIC) assay, Example 1, S. pyogenes strains; type: cell-based, Streptococcus pyogenes
# Method: (§1) Strains were conserved in Luria Bertani (LB) Broth (S. aureus) or Brain Heart Infusion (BHI) (S. pyogenes) supplemented with glycerol 15% (v/v) at −80° C., and reactivated by isolation on LB (S. aureus) or BHI (S. pyogenes) agar plates. Strains were cultivated in Mueller Hinton (MH) Broth-cation adjusted (S. aureus) supplemented with lysed horse blood 2.5% (v/v) (S. pyogenes). All strains were cultivated at 37° C., aerobically for S. aureus strains.
# (§2) Bacterial cultures were stopped in their exponential growth phase and plates were inoculated with the approximate concentration of 10^3 cells per well. Plates were incubated at 37° C. for 18 hours (S. aureus) or 24 hours (S. pyogenes). Optical density at a wavelength of 600 nm was measured at the end of the incubation time. […] Experiments were performed at least as triplicate biological replicates with all strains.
# MRSA 01 [2] = test: Colony-forming unit (CFU) in skin lesions of mice challenged with MRSA 01; type: in vivo, Staphylococcus aureus; details: female Balb/c mice, MRSA 01 skin lesion, topical twice daily for three days, Experiment 1
# Method: Three animal studies were performed with niclosamide and fusidic acid as comparison with different formulations and doses.
# In each experiment, female Balb/c mice received a skin lesion approximately 1 cm^2 and were challenged with 1.5×10^8 cfu MRSA 01 topically. Twenty-four hours after the wound formation and the contamination, mice were treated topically with 0.05 ml twice daily for three days. Mice were sacrificed on day 4, skin lesions were excised and cfu quantitated. Fusidin ointment (2% from Leo Pharma) was included as control.
# [3] = cats, p.o.; cited from earlier work
# [4] = test system: Streptococcus pyogenes strains; test: MIC assay, Example 2, S. pyogenes strains (in BHI); type: cell-based
# Method: Strains were conserved in Luria Bertani (LB) Broth (S. aureus) or Brain Heart Infusion (BHI) (S. pyogenes) supplemented with glycerol 15% (v/v) at −80° C., and reactivated by isolation on LB (S. aureus) or BHI (S. pyogenes) agar plates. Strains were cultivated in Mueller Hinton (MH) Broth-cation adjusted (S. aureus) or BHI (S. pyogenes). All strains were cultivated aerobically (microaerobically for S. pyogenes strains) at 37° C. […] Bacterial cultures were stopped in their exponential growth phase and plates were inoculated with the approximate concentration of 5×10^5 cells per well.
# [5] = test system: quorum sensing response in P. aeruginosa; details: reduction of quorum sensing response in P. aeruginosa; cited from earlier work
# S. aureus strains = test: Minimum Inhibitory Concentration (MIC) assay, Example 1, S. aureus strains; type: cell-based; details: Staphylococcus aureus
# Method: as §1, §2
# MRSA 01 [6] = test: Time-kill assay; type: cell-based, Staphylococcus aureus; details: niclosamide 4 μg/ml (MIC×10), initial inoculum 7 log10 cfu/ml
# Method: Assay was performed in 20 ml of medium. It included a negative control (medium without bacteria), a positive control (bacteria grown without niclosamide) and the assay (bacteria grown with niclosamide). […] This experiment was performed with the primary test microorganism indicated above.
# The overnight culture was stopped and OD600 was measured. Culture was then diluted in indicated medium to obtain an OD600 of 0.25 in order to have about 5×10^8 cfu/ml. Two hundred μl of this diluted culture were then added in all conditions except in the negative control. Initial bacterial concentration was about 5×10^6 cfu/ml. Tubes were incubated aerobically at 37° C. for 24 hours.
# Bacteria were enumerated before the incubation, after 30 minutes, 1, 2, 4, 8 and 24 hours of incubation by serial dilutions in NaCl 0.9% and plating on LB agar, with 2 plates per dilution. Plates were incubated at 37° C. and colonies enumerated after 24 hours.
# [7] = cited from earlier work
# [8] = S. pyogenes strains with MIC 0.0625 μg/ml
# [9] = S. pyogenes strains with MIC 0.5 μg/ml
# [10] = S. pyogenes strains with MIC […]
smiles,measurement,setting,value
"O=C(Nc1ccc([N+](=O)[O-])cc1Cl)c1cc(Cl)ccc1O [Niclosamide, 5-chloro-N-(2-chloro-4-nitrophenyl)-2-hydroxybenz-amide]",effect on growth of P. aeruginosa,P. aeruginosa,does not affect the growth
same,inhibitory activity against MRSA 01 as a function of pH,"MRSA 01 [1]; MRSA 01, pH 7.4 to 5.5",increased when pH was decreased
same,pH at which the maximal inhibitory effect was observed,"MRSA 01 [1]; MRSA 01, pH-adjusted Mueller-Hinton Broth",5.5
same,MIC,"MRSA 01 [1]; MRSA 01, pH 5.5 (actual pH 5.530), Replicate 3",≤ 0.008 µg/mL
same,MIC,"MRSA 01 [1]; MRSA 01, pH 5.5 (actual pH 5.547), Replicate 2",≤ 0.008 µg/mL
same,MIC,"MRSA 01 [1]; MRSA 01, pH 5.5 (actual pH 5.569), Replicate 1",≤ 0.03 µg/mL
same,MIC,"MRSA 01 [1]; MRSA 01, pH 6.0 (actual pH 5.893), Replicate 1",0.06 µg/mL
same,MIC,"MRSA 01 [1]; MRSA 01, pH 6.0 (actual pH 5.955), Replicate 2",0.06 µg/mL
same,MIC,"MRSA 01 [1]; MRSA 01, pH 6.0 (actual pH 5.980), Replicate 3",0.016 µg/mL
same,MIC,"MRSA 01 [1]; MRSA 01, pH 6.5 (actual pH 6.512), Replicate 1",0.125 µg/mL
same,MIC,"MRSA 01 [1]; MRSA 01, pH 6.5 (actual pH 6.540), Replicate 3",0.03 µg/mL
same,MIC,"MRSA 01 [1]; MRSA 01, pH 6.5 (actual pH 6.566), Replicate 2",0.06 µg/mL
same,MIC,"MRSA 01 [1]; MRSA 01, pH 7.0 (actual pH 6.921), Replicate 1",0.25 µg/mL
same,MIC,"MRSA 01 [1]; MRSA 01, pH 7.0 (actual pH 7.025), Replicate 3",0.125 µg/mL
same,MIC,"MRSA 01 [1]; MRSA 01, pH 7.0 (actual pH 7.071), Replicate 2",0.125 µg/mL
same,MIC,"MRSA 01 [1]; pH 7.4, MRSA 01, pH not adjusted (actual pH 7.4), Replicate 1",0.5 µg/mL
same,MIC,"MRSA 01 [1]; pH 7.4, MRSA 01, pH not adjusted (actual pH 7.4), Replicate 2",0.25 µg/mL
same,MIC,"MRSA 01 [1]; pH 7.4, MRSA 01, pH not adjusted (actual pH 7.4), Replicate 3",0.5 µg/mL
same,MIC,"S. pyogenes strains; Streptococcus pyogenes, S. pyogenes strains, read-out: Mic100 S. pyogenes",≤ 3 µg/mL and ≤ 3 µM
same,MIC,"S. pyogenes strains; against Streptococcus pyogenes strains (FIG. 1), read-out: MIC",≤ 3.2 µg/mL
same,bacterial reduction (CFU in skin lesions) compared to control vehicles,MRSA 01 [2],significant bacterial reductions
same,LD50,[3],> 1000 mg/kg
same,MIC distribution (percentage of strains),[4]; [8],25%
same,MIC distribution (ratio of strains),[4]; [8],(1/4)
same,MIC distribution (percentage of strains),[4]; [9],25%
same,MIC distribution (ratio of strains),[4]; [9],(1/4)
same,MIC distribution (percentage of strains),[4]; [10],25%
same,MIC distribution (ratio of strains),[4]; [10],(1/4)
same,MIC,"[4]; Streptococcus pyogenes, all targeted S. pyogenes strains",≤ 0.5 µg/mL
same,concentration at which some inhibition was detected,[5],1 µM
same,concentration required for optimal activity,[5],20 µM
same,MIC,"S. aureus strains; S. aureus strains, read-out: Mic100 S. aureus",≤ 0.4 µg/mL and ≤ 1.25 µM
same,MIC,"S. aureus strains; against S. aureus strains, including strains resistant to fusidic acid and to mupirocin (FIG. 1), read-out: MIC",≤ 0.4 µg/mL
same,bactericidal or bacteriostatic effect (time-kill curve),MRSA 01 [6],bacteriostatic effect
same,LD50 mice p.o,[7]; Table 3,>1500 mg/kg
same,LD50,"[7]; mice, p.o.",> 5000 mg/kg
